In general, melting point refers to the temperature, or range, at which the solid turns liquid.

Turning to `O=C(Nc1ccc(F)c(CBr)c1)c1ccccn1`, the melting point lay in the range of 137 to 138 °C.

Turning to `CCSc1nccn1-c1ccc(O)cc1`, the melting point was 165 °C.

In turn, `COc1cc(Br)c(OC)c(CO)c1` came in with a melting point of 59 to 60 °C.

In turn, `CCOC(=O)Cc1nc2cc(OC)c(OC)cc2c(-c2ccc(OC)c(OC)c2)c1C(=O)OCC` returned a melting point of 146 to 147 °C.

Turning to `CS(=O)(=O)c1ccc(Oc2ccc(Cl)cc2)cc1`, the melting point fell in the range of 109 to 111 °C.

In the case of `COc1cnc(CSc2nc3cc(OC(F)(F)C(F)F)ccc3[nH]2)c(C)c1OC`, the melting point lay in the range of 127 to 128 °C.

For the compound `O=c1c2c[nH]c3c(c-2nn1-c1ccccc1)COCC3`, the melting point fell in the range of 304 to 306 °C.

`CC(C)Oc1cc(C(=O)O)n(Cc2ncc(C(F)(F)F)cc2Cl)n1` gave a melting point of 124 to 125 °C.

`C=CCNC(=S)n1nc(Oc2ncc(C(F)(F)F)cc2Cl)cc1C` returned a melting point of 46 to 48 °C.

`N#CN1CCC(=C2c3ccccc3CCc3ccncc32)CC1` registered a melting point of 212 to 214 °C.

Consider `O=C(O)Cc1cccc(C(=O)c2ccc(OCc3ccc4ccccc4n3)cc2)c1`, for which the melting point lay in the range of 146 to 147 °C.

For the compound `COC(=O)c1ccc2c(c1)N(C)C(=O)c1cccnc1N2`, the melting point is 273 to 276 °C.

With `CCOc1ccc2[nH]c(=O)n(C3CCCCC3)c2c1`, the melting point is 203 °C.

Compound `C=Cc1ccc(-c2ccc(OC(C)CCCCCC)cc2)cc1` (stereo unspecified) came in with a melting point of 80.6 °C.

In turn, `O=C1CCCC2=C1C(c1ccccc1)C1=C(CCCC1)N2` (stereo unspecified) had a melting point of 252 to 254 °C.

On to `CCOC(=O)C1Cc2c(c(Cl)cc3c(-c4ccccc4)noc23)O1` (stereo unspecified), for which the melting point is 123 to 125 °C.

In turn, `Nc1ccc(C(F)(F)F)cc1S(N)(=O)=O` returned a melting point of 142 to 143 °C.

Compound `Cn1ccnc1Sc1ccc(Nc2c(C#N)cnc3cc(/C=C/CN4CCOCC4)ccc23)cc1Cl` registered a melting point of 235 to 240 °C.

The compound `CC(C)(C)c1cc(SCC(=O)Nc2c(Cl)cccc2Cl)cc(C(C)(C)C)c1O` came in with a melting point of 168 to 170 °C.

`COc1cc2ncc(C#N)c(Nc3cccc(CSC(C)=O)c3)c2cc1OC`: the melting point was 172 to 177 °C.

With `CCCCCC(CCCCC)n1c(=O)sc2c(=O)[nH]c(N)nc21`, the melting point was more than 195 °C.

As for `CCCC12CSC(SC1)SC2`, the melting point amounted to 139 °C.

In turn, `CCCCCCNC(=S)NN=C(CCCCl)c1ccccc1` gave a melting point of 42 to 44 °C.

For `C=Cc1c(N)nc(-c2ccc(Cl)c(F)c2F)nc1C(=O)OC`, the melting point was in the range of 130 to 132 °C.

In turn, `Cc1nc(N)c2ncn(Cc3cc(-c4ccc(F)cc4)no3)c2c1C` registered a melting point of 244 to 246 °C.

In turn, `CN(C)C=Cc1nc2ccccc2c(=O)n1-c1ccccc1Cl` showed a melting point of 228 to 230 °C.

On to `COc1ccc(C(=CC(=O)N2CCOCC2)c2ccc(-c3ccccc3)cc2)cc1OC`, for which the melting point was 127 to 128 °C.

As for `O=C(O)CNC(=O)Cc1ccc(Cl)cc1S`, the melting point lay within 148 to 149 °C.

`Cc1cccc(NC(=O)NCC2(c3ccccc3)CCCCC2)c1` had a melting point of 145 to 147 °C.

Take `COc1ccc(C(=O)Nc2ccc(F)c(F)c2)cc1NC(=S)Nc1cccc(C(=O)O)c1`: the melting point was in the range of 221 to 222 °C.

For the compound `NCC1Cc2cc(-c3ccc(C(F)(F)F)cc3)cc(F)c2O1` (stereo unspecified), the melting point was more than 250 °C.

On to `CCOC(=O)c1ccc(N2CCCC2=O)cc1`, for which the melting point was in the range of 94 to 95 °C.

`O=C1CCN(Cc2ccccc2[N+](=O)[O-])CC1C(c1ccc(F)cc1)c1ccc(F)cc1` (stereo unspecified) returned a melting point of 151 to 152 °C.

`CCNc1ccc(NC(=O)c2ccc(C)c(Nc3nccc(-c4cccnc4)n3)c2)cc1C(F)(F)F`: the melting point is 178 to 180 °C.

As to `CCOC(=O)c1cc2c(=O)n(CC)c3ccc(Cl)cc3n2c1`, the melting point fell in the range of 230 to 232 °C.

Turning to `CN1CCN(C2CC3(C)C(CCC4C3CCC3(C)C(O)C(N5CCCCC5)CC43)CC2O)CC1` (stereo unspecified), the melting point was 230 to 234 °C.

Regarding `O=C(Nc1cccc(F)c1)NC1CCN(S(=O)(=O)c2ccccc2)CC1`, the melting point was 186 to 188 °C.

For the compound `CC(C)(c1ccccc1)c1cccc(S(=O)(=O)Cl)c1`, the melting point fell in the range of 47.5 to 49 °C.

`O=C1OC(=O)c2c(Sc3ccccc3)c(Sc3ccccc3)c(Sc3ccccc3)c(Sc3ccccc3)c21` yielded a melting point of 141 to 142 °C.

In the case of `C[C@@H](Nc1ncnc2[nH]c(-c3cccc([N+](=O)[O-])c3)cc12)c1ccccc1`, the melting point was more than 250 °C.

With `COC(=O)C1CCC2C3CCC4CC(O)CCC4(C)C3C(N)CC12C` (stereo unspecified), the melting point was 113 to 116 °C.

Consider `CC(=O)OCc1ccc(Cl)cc1C(O)c1ccccc1` (stereo unspecified), for which the melting point lay in the range of 86 to 88 °C.

In turn, `Fc1cccc(CSc2nnc(-c3ccn4ncnc4c3)o2)c1` had a melting point of 153 to 154 °C.

`O=C(O)C(Sc1nc2ccc(Cl)nc2s1)c1ccc(Cl)cc1` (stereo unspecified) yielded a melting point of 144 to 146 °C.

`CCN1C(Cl)=NC(C)=NS1(=O)=O` displayed a melting point of 57 to 59 °C.

`CC(C)Oc1cc(-n2nc(C(F)(F)F)[nH]c2=O)c(Cl)cc1Cl` showed a melting point of 160 to 161 °C.

Take `O=C(OC1CCCCC1)c1ccc(Nc2nc(Nc3ccc(C(=O)OC4CCCCC4)cc3)nc(Nc3ccc(C(=O)OC4CCCCC4)cc3)n2)cc1`: the melting point fell in the range of 171 to 173 °C.

For the compound `CC(C)=CCOc1ccc(C(=O)C=Cc2cccc([N+](=O)[O-])c2)c(O)c1`, the melting point was 125 to 126 °C.

Turning to `Cc1ccc(-n2c(-c3ccc(C=Cc4ccccc4)cc3)ccc2-c2ccc(C=Cc3ccccc3)cc2)cc1`, the melting point lay within 297 to 298 °C.

In turn, `COc1ccc2c(c1)C(C(=O)Nc1c(C(C)C)cccc1C(C)C)c1cccnc1CO2` (stereo unspecified) displayed a melting point of 180 to 181 °C.

Compound `O=C(NC1CCN(Cc2ccccc2)CC1)c1ccc(Nc2c(C(=O)NC3CCN(Cc4ccccc4)CC3)cnc3cc(Cl)ccc23)cc1` returned a melting point of 230 to 232 °C.

Consider `CC(=O)NCCn1cccc1`, for which the melting point is 59 to 60 °C.

For the compound `COc1ccc(C(O)(Cc2ccncc2)c2ccncc2)cc1OC1CCCC1` (stereo unspecified), the melting point was in the range of 99 to 103 °C.

In turn, `CCc1cc(C=CN2C(=O)c3ccccc3C2=O)c(=O)[nH]c1C` returned a melting point of 296 to 298 °C.

As to `COc1ccccc1Sc1c(Cl)nc(C)nc1Cl`, the melting point is 140 °C.

Regarding `CCCCCCN1C(=O)C(=CC(=O)O)SC1=Nc1cccc2ccccc12`, the melting point is 144 to 145 °C.

`NNC(=O)Nc1nccs1` gave a melting point of 166 to 167 °C.

As for `CCCCc1nnc(-c2ccc([N+](=O)[O-])cc2)o1`, the melting point was in the range of 68 to 70 °C.

In turn, `COc1ccc(N2CCN(Cc3cnc(N)nc3N)CC2)cc1` had a melting point of 239 to 241 °C.

In turn, `O=C(N[C@H]1CCc2ccc(O)cc2C1)[C@H](O)c1ccc(OCc2ccccc2)cc1` displayed a melting point of 137 to 139 °C.

With `COC(=O)c1cn(-c2ccc(Oc3ccc(C)cc3O)cc2)nn1`, the melting point lay within 148 to 151 °C.

Compound `CC(=O)NNc1c(C)cnc2c(NC(=O)c3c(Cl)cccc3Cl)cccc12` returned a melting point of 249 to 254 °C.

Turning to `CC(C)(C)[S@](=O)N1CCC[C@@H]1c1ccc(O)cc1`, the melting point is 150 °C.

Consider `CC(C)N(C(N)=S)c1ccc2c(c1)OCO2`, for which the melting point lay within 149 to 151 °C.

In turn, `CCc1c([N+](=O)[O-])cc(C2CCNCC2)cc1[N+](=O)[O-]` displayed a melting point of 85 to 86 °C.

For the compound `CC(C)OC(=O)c1cc(-n2c(=O)c3c(n(C)c2=O)CCC3)c(F)cc1Br`, the melting point lay within 116 to 120 °C.

In turn, `CCCCC#Cc1cc2c(cc1Br)C(C)(C)CCC2(C)C` returned a melting point of 59 to 63 °C.

`COCOc1cc(Cl)ccc1-c1cc(-c2cccc(C(=O)O)c2)c(C#N)c(NC(=O)c2ccco2)n1` came in with a melting point of 214 to 216 °C.

For the compound `Cc1nc(C(Cl)(Cl)Cl)nc(OC(=O)N(C)C)c1Cl`, the melting point lay in the range of 87 to 88 °C.

Turning to `Cn1c(-c2ccccc2Cl)c2ccsc2nc1=O`, the melting point lay in the range of 190 to 192 °C.

For `COc1ccc(NC(=S)N2CCn3c(c(C(N)=O)c(Cl)c3-c3ccccc3)C2)cc1`, the melting point was in the range of 176 to 178 °C.

Compound `O=C(O)CCCOc1ccc(OCc2ccccc2)cc1` returned a melting point of 125 to 126 °C.

`C=CCc1[nH]cc(C#N)c1-c1ccc(Cl)cc1C(=O)c1ccccc1F` displayed a melting point of 142 to 144 °C.

As to `O=C1c2cccc(NC(=S)Nc3cnccn3)c2C2CCCCN12` (stereo unspecified), the melting point stood at 204 °C.

`Cc1ccnc2c1N=C(S(C)(=O)=O)c1cccnc1N2C1CC1`: the melting point lay in the range of 172 to 173 °C.

For `O=C1NCc2c(-c3ccccc3)cccc2N1CCN1CCOCC1`, the melting point was 228 to 229 °C.

As for `Cc1ccc(OC(=O)N2CCCC2=O)cc1`, the melting point was 101 to 102 °C.

Compound `COc1cc2ncnc(N3CCC(C(C)CN4C(C)=CC(C)=NS4(=O)=O)CC3)c2cc1OC` (stereo unspecified) displayed a melting point of 169 to 172 °C.

As for `CC(Cl)(Cl)C(NC(=O)c1cc(F)cc(F)c1)NC(=NC#N)Nc1cccnc1` (stereo unspecified), the melting point was in the range of 191 to 193 °C.

`N=C(N)CSc1nnc(S)s1`: the melting point is 184 to 187 °C.

`CC(C)(C(=O)c1ccccc1)n1cncn1` yielded a melting point of 134 to 135 °C.

`CC(=O)OCc1ccc2oc(=O)c(C(=O)Oc3ccccc3C#N)cc2c1` had a melting point of 181 to 183 °C.

With `CCCc1c(OCCCCCOc2cccc(NC(=O)C(=O)O)c2)ccc(C(C)=O)c1O`, the melting point is 117 to 118 °C.

Take `N#Cc1cc(N)nc(SCc2ccc3ccccc3c2)n1`: the melting point fell in the range of 154 to 155 °C.

Regarding `COC(=O)c1c(OC(C)=O)cc2cc(Br)ccc2c1C`, the melting point came out at 78 °C.

Regarding `O=C1NC(=O)C(Cc2ccc(SCCc3ccccc3)cc2)S1` (stereo unspecified), the melting point fell in the range of 58 to 65 °C.

Turning to `CCCOC(N)=C(C#N)C(N)=S`, the melting point is 174 °C.

Consider `COc1cccc(-n2nc(C(=O)O)c3csc(N)c3c2=O)c1`, for which the melting point lay in the range of 227 to 229 °C.

Consider `CC(C)C(N)CN1CCC(Nc2nc3ccccc3[nH]2)CC1` (stereo unspecified), for which the melting point was 138 °C.

Turning to `CCCCN(C)CCc1ccc(Nc2ncc3c(n2)-c2ccccc2C(c2cccc(Br)c2)C3)cc1` (stereo unspecified), the melting point lay within 66 to 68 °C.

As for `CCNC(=O)OCCOc1ccc(Oc2cccc(Cl)c2)cc1Cl`, the melting point lay in the range of 73 to 74 °C.

(Values after a melting point compilation (Tetko et al.; mined from patent text by program, amines drawn as free bases though some values may be those of a salt).)
